Calls of active or inactive are those of the source. The calls are words filed in the database; no cut-off is given here.
Legend:
[1] = target: T1, Nicotinamide N-methyltransferase (Homo sapiens, UniProt P40261); experiment: Inhibition of wild-type human full length NNMT expressed in Escherichia coli BL21(DE3) cells assessed as reduction in 1-methyl-nicotinamide formation pre-incubated for 10 mins followed by AdoMet and nicotinamide addition measured after 30 mins by UHP-HILIC/Q-TOF-MS analysis
T1 sequence (P40261 whole entry): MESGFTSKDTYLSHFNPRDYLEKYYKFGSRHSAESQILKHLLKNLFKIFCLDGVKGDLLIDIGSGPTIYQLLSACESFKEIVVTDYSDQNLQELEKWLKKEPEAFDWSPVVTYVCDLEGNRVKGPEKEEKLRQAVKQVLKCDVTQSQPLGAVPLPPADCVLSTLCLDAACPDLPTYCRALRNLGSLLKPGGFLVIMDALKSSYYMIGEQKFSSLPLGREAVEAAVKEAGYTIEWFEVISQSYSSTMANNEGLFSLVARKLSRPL

[2] = system: HSC-2; experiment: Antiproliferative activity against human HSC2 cells assessed as reduction in cell viability at 100 uM measured after 72 hrs by MTT assay relative to control; assay type: functional
[3] = system: HSC-2; experiment: Antiproliferative activity against human HSC2 cells assessed as reduction in cell viability at 100 uM measured after 48 hrs by MTT assay relative to control; assay type: functional
[4] = system: HSC-2; experiment: Antiproliferative activity against human HSC2 cells assessed as reduction in cell viability at 50 uM measured after 48 hrs by MTT assay relative to control; assay type: functional
[5] = system: HSC-2; experiment: Antiproliferative activity against human HSC2 cells assessed as reduction in cell viability at 10 uM measured after 48 hrs by MTT assay relative to control; assay type: functional
[6] = system: HSC-2; experiment: Antiproliferative activity against human HSC2 cells assessed as reduction in cell viability at 1 to 100 uM measured up to 72 hrs by MTT assay; assay type: functional, cell-based

Compound	IC50 [1]	further results
NC(=O)c1cccc(CN(CCCCC(=O)O)C[C@H]2O[C@@H](n3cnc4c(N)ncnc43)[C@H](O)[C@@H]2O)c1	> 250 µM	
CC(C)N(Cc1cccc(C(=O)O)c1)C[C@H]1O[C@@H](n2cnc3c(N)ncnc32)[C@H](O)[C@@H]1O	> 250 µM	
Nc1ncnc2c1ncn2[C@@H]1O[C@H](CN(CC[C@H](N)C(=O)O)Cc2ccc3ccccc3c2)[C@@H](O)[C@H]1O		Activity [2]: 44%; Activity [3]: 27%; Activity [4]: 21%; Activity [5]: 20%
NC(=O)CCCCN(Cc1cccc(C(N)=O)c1)C[C@H]1O[C@@H](n2cnc3c(N)ncnc32)[C@H](O)[C@@H]1O	> 250 µM	
Nc1ncnc2c1ncn2[C@@H]1O[C@H](CN(CCCCC(=O)O)Cc2ccc3ccccc3c2)[C@@H](O)[C@H]1O	> 250 µM	
Nc1ncnc2c1ncn2[C@@H]1O[C@H](CN(CCCC(=O)O)Cc2cccc(C(=O)O)c2)[C@@H](O)[C@H]1O	> 250 µM	
NC(=O)CCCN(Cc1ccc2ccccc2c1)C[C@H]1O[C@@H](n2cnc3c(N)ncnc32)[C@H](O)[C@@H]1O	111 µM	
Nc1ncnc2c1ncn2[C@@H]1O[C@H](CN(CCCCC(=O)O)Cc2cccc(C(=O)O)c2)[C@@H](O)[C@H]1O	> 250 µM	
CC(C)N(Cc1ccc2ccccc2c1)C[C@H]1O[C@@H](n2cnc3c(N)ncnc32)[C@H](O)[C@@H]1O	130 µM	
NC(=O)c1cccc(CCN(CCC[C@H](N)C(=O)O)C[C@H]2O[C@@H](n3cnc4c(N)ncnc43)[C@H](O)[C@@H]2O)c1	4.36 µM	Activity [6]: inactive
COC(=O)c1cccc(CN(CCCC(N)=O)C[C@H]2O[C@@H](n3cnc4c(N)ncnc43)[C@H](O)[C@@H]2O)c1	> 250 µM	
NC(=O)CCCN(Cc1cccc(C(=O)O)c1)C[C@H]1O[C@@H](n2cnc3c(N)ncnc32)[C@H](O)[C@@H]1O	> 250 µM	
NC(=O)CCCCN(Cc1cccc(C(=O)O)c1)C[C@H]1O[C@@H](n2cnc3c(N)ncnc32)[C@H](O)[C@@H]1O	> 250 µM	
COC(=O)c1cccc(CN(CCCCC(N)=O)C[C@H]2O[C@@H](n3cnc4c(N)ncnc43)[C@H](O)[C@@H]2O)c1	> 250 µM	
Nc1ncnc2c1ncn2[C@@H]1O[C@H](CSCC[C@H](N)C(=O)O)[C@@H](O)[C@H]1O [S-ADENOSYLHOMOCYSTEINE]	35.3 µM	
COC(=O)c1cccc(CN(CCCCC(=O)O)C[C@H]2O[C@@H](n3cnc4c(N)ncnc43)[C@H](O)[C@@H]2O)c1	> 250 µM	
COC(=O)c1cccc(CN(CCCC(=O)O)C[C@H]2O[C@@H](n3cnc4c(N)ncnc43)[C@H](O)[C@@H]2O)c1	> 250 µM	
NC(=O)CCCN(Cc1cccc(C(N)=O)c1)C[C@H]1O[C@@H](n2cnc3c(N)ncnc32)[C@H](O)[C@@H]1O	> 250 µM	
COC(=O)c1cccc(CN(C[C@H]2O[C@@H](n3cnc4c(N)ncnc43)[C@H](O)[C@@H]2O)C(C)C)c1	> 250 µM	
CC(C)N(Cc1cccc(C(N)=O)c1)C[C@H]1O[C@@H](n2cnc3c(N)ncnc32)[C@H](O)[C@@H]1O	> 250 µM	
NC(=O)c1cccc(CN(CC[C@H](N)C(=O)O)C[C@H]2O[C@@H](n3cnc4c(N)ncnc43)[C@H](O)[C@@H]2O)c1		Activity [6]: inactive
Nc1ncnc2c1ncn2[C@@H]1O[C@H](CN(CCC[C@H](N)C(=O)O)Cc2ccc3ccccc3c2)[C@@H](O)[C@H]1O	> 250 µM	Activity [6]: inactive
Nc1ncnc2c1ncn2[C@@H]1O[C@H](CN(CCCC(=O)O)Cc2ccc3ccccc3c2)[C@@H](O)[C@H]1O	> 250 µM	
Nc1ncnc2c1ncn2[C@@H]1O[C@H](C[C@@H](N)CC[C@H](N)C(=O)O)[C@@H](O)[C@H]1O [SINEFUNGIN]	12.5 µM	
NC(=O)c1cccc(CN(CCCC(=O)O)C[C@H]2O[C@@H](n3cnc4c(N)ncnc43)[C@H](O)[C@@H]2O)c1	> 250 µM	
